Results: article PMC5785474, “Application of Sustainable Natural Resources in Agriculture: Acaricidal and Enzyme Inhibitory Activities of Naphthoquinones and Their Analogs against Psoroptes cuniculi” (Scientific Reports, 2018)

Molecular target: acetylcholinesterase (AChE)
Test: AChE activity in crude mite homogenate supernatant, acetylthiocholine/DTNB assay at […] nm
Type: biochemical, Psoroptes cuniculi

Row | Compound | IC50 (ppm)
1 | O=C1C=CC(=O)c2c(O)cccc21 [compound 1, Juglone] | 14.81
2 | CC1=CC(=O)c2c(O)cccc2C1=O [compound 2, Plumbagin] | 29.87
